# Results: ChEMBL document CHEMBL4765237, “Structural optimization and structure-activity relationship studies of N-phenyl-7,8-dihydro-6H-pyrimido[5,4-b][1,4]oxazin-4-amine derivatives as a new class of inhibitors of RET and its drug resistance mutants” (Eur J Med Chem, 2018)
# Activity calls are given as the source filed them. The rule behind the calls is not given here.
# Legend:
# [1] = Growth inhibition of […] NIH3T3 cells harboring RET C634Y mutant incubated for 3 days by MTT assay; assay type: functional; settings: NIH3T3, 72 h; time 3 day
# BaF3 [2] = assay type: functional; settings: Mus musculus, BaF3, 72 h; time 3 day
# BaF3 [3] = experiment: Growth inhibition of mouse BaF3 cells incubated for 3 days by MTT assay; assay type: functional; settings: BaF3, 72 h, time 3 day
# BaF3 [4] = experiment: Growth inhibition of mouse BaF3 cells harboring RET M918T mutant incubated for 3 days by MTT assay; assay type: functional; settings: BaF3, 72 h, time 3 day
# [5] = Growth inhibition of […] NIH3T3 cells incubated for 3 days by MTT assay; assay type: functional; settings: NIH3T3, 72 h; time 3 day
# [6] = Growth inhibition of human TT cells incubated for 10 days by MTT assay; assay type: functional; settings: 240 h, time 10 day
# BaF3 [7] = experiment: Growth inhibition of mouse BaF3 cells harboring RET V804M mutant incubated for 3 days by MTT assay; assay type: functional; settings: BaF3, 72 h, time 3 day
# [8] = molecular target: Proto-oncogene tyrosine-protein kinase receptor Ret (Homo sapiens, UniProt P07949)
# BaF3 [9] = experiment: Growth inhibition of mouse BaF3 cells over expressing wild type RET incubated for 3 days by MTT assay; assay type: functional; settings: BaF3, 72 h, time 3 day
# [10] = molecular target: Proto-oncogene tyrosine-protein kinase receptor Ret (Homo sapiens, UniProt P07949, V804M)
# NIH3T3 = settings: Homo sapiens, dose 30.0 mg/kg, time 18.0 day
# [11] = Toxicity in NOD-SCID mouse xenografted with […] cells harboring RET C634Y mutant assessed as reduction in body weight at 30 mg/kg, po administered for 18 days and measured on day 18; assay type: organism-based; settings: in vivo, 432 h, time 18 day
# Chain of Proto-oncogene tyrosine-protein kinase receptor Ret (Homo sapiens, UniProt P07949, V804M) (P07949 29-1114 V804M limits assumed): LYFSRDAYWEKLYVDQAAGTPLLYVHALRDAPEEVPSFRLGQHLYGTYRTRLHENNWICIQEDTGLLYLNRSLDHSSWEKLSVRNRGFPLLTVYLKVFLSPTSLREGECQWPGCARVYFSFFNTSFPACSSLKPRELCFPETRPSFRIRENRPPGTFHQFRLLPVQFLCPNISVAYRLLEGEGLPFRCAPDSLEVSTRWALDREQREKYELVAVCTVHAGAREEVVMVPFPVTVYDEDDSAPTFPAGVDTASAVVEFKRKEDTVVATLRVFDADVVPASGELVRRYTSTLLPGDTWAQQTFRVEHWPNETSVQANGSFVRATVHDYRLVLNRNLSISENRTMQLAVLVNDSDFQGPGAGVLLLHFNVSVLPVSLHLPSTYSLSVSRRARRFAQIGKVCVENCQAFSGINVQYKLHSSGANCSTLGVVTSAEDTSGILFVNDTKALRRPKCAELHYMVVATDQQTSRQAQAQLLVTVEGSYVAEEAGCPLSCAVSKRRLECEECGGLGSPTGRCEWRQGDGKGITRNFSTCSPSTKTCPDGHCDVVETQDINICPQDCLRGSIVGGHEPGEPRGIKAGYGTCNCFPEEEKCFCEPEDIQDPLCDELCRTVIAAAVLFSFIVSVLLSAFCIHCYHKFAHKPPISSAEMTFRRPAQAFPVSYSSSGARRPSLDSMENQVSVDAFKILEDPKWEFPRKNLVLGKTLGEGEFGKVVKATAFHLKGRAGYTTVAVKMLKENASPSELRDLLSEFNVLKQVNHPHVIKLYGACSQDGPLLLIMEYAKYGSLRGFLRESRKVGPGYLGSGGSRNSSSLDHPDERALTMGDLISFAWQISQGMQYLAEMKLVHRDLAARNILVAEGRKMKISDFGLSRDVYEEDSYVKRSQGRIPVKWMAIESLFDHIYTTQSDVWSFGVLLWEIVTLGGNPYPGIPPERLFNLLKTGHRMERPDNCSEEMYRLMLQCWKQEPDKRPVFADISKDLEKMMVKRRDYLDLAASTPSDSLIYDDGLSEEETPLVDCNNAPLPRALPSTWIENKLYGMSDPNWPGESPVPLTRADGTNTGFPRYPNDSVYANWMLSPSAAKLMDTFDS
# Chain of Proto-oncogene tyrosine-protein kinase receptor Ret (Homo sapiens, UniProt P07949) (P07949 whole entry): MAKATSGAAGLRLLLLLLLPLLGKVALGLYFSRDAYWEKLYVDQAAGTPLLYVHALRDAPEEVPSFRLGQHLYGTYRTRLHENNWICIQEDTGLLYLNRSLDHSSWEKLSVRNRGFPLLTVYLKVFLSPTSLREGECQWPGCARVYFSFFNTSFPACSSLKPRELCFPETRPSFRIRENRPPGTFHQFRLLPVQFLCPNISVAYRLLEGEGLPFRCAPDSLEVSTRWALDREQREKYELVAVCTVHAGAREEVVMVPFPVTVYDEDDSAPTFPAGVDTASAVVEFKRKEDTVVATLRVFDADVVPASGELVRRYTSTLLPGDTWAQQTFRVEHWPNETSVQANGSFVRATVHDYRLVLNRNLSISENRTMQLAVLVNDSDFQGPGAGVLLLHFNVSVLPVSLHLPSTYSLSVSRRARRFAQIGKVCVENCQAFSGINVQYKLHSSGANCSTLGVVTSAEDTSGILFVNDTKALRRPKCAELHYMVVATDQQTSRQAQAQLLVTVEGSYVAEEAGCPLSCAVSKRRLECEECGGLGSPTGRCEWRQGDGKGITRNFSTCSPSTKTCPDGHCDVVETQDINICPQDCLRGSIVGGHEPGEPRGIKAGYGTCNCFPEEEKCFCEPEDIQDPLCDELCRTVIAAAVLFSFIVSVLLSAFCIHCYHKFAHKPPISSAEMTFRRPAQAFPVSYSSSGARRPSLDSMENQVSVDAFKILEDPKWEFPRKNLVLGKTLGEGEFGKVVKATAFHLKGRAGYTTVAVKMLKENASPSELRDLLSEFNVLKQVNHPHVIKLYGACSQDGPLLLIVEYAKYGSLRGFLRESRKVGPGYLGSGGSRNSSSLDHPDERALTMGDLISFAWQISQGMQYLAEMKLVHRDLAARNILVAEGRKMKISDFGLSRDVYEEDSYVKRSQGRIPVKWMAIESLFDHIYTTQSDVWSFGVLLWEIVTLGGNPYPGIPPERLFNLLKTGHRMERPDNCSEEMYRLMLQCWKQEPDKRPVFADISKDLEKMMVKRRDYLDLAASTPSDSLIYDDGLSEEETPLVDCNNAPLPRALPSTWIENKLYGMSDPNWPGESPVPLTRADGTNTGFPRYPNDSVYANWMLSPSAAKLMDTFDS
SMILES,GI50 (BaF3 [2]) [µM],GI50 (BaF3 [3]) [µM],GI50 (BaF3 [4]) [µM],GI50 (BaF3 [7]) [µM],IC50 [8] [µM],GI50 (BaF3 [9]) [µM],IC50 [10] [µM],GI50 [1] [µM],GI50 [5] [µM],GI50 [6] [µM],TGI (NIH3T3),Activity [11]
COc1cc2nccc(Oc3ccc(NC(=O)C4(C(=O)Nc5ccc(F)cc5)CC4)cc3)c2cc1OC [CABOZANTINIB],1.53,9.36,1.45,2.8,,0.15,,0.1,> 10,0.2,Active,Non-Toxic
CNC(=O)c1cc(Oc2ccc(NC(=O)Nc3ccc(Cl)c(C(F)(F)F)c3)cc2)ccn1 [SORAFENIB],1.8,6.36,1.28,1.1,,0.23,,0.32,> 10,0.23,Active,Non-Toxic
COc1cc2/c(=N/c3ccc(Br)cc3F)nc[nH]c2cc1OCC1CCN(C)CC1 [VANDETANIB],> 10,8.41,0.97,> 10,,0.46,,0.34,7.15,0.14,,
O=C(Nc1ccc(Nc2ncnc3c2OCCN3)cc1)Nc1cccc2ccccc12,> 10,> 10,> 10,> 10,> 10,> 10,> 10,> 10,> 10,> 10,,
CC(C)(C)c1cc(NC(=O)Nc2cccc(Nc3ncnc4c3OCCN4)c2)no1,> 10,> 10,> 10,> 10,0.944,> 10,3.45,> 10,> 10,> 10,,
O=C(Nc1ccc(Nc2ncnc3c2OCCN3)cc1)Nc1ccc(Cl)c(C(F)(F)F)c1,> 10,> 10,9.94,> 10,0.177,3.07,0.188,2.29,> 10,1.99,,
CN1CCOc2c(Nc3ccc(NC(=O)Nc4cc(C(C)(C)C)on4)cc3)ncnc21,> 10,> 10,> 10,> 10,0.324,8.06,0.344,> 10,> 10,4.86,,
O=C(Nc1ccc(Cl)cc1)Nc1ccc(Nc2ncnc3c2OCCN3)cc1,> 10,> 10,> 10,> 10,3.07,> 10,2.28,> 10,> 10,> 10,,
O=C(Nc1ccc(Nc2ncnc3c2OCCN3)cc1)Nc1ccc(C(F)(F)F)cc1,> 10,10,> 10,8.49,0.306,4.4,0.276,3.14,> 10,6.65,,
CC(C)(C)c1cc(NC(=O)Nc2ccc(Nc3ncnc4c3OCCN4)cc2)no1,4.41,> 10,1.62,1.36,0.01,0.15,0.034,0.11,> 10,0.08,,
CC(C)(C)c1cc(NC(=O)Nc2ccc(Nc3ncnc4c3OCCN4)c(F)c2)no1,3.49,10,2.94,1.53,0.021,0.33,0.022,0.39,> 10,0.3,,
COc1cc(NC(=O)Nc2cc(C(C)(C)C)on2)ccc1Nc1ncnc2c1OCCN2,> 10,> 10,> 10,> 10,0.022,4.7,0.033,2.7,> 10,3.03,,
O=C(Nc1ccc(Br)cc1)Nc1ccc(Nc2ncnc3c2OCCN3)cc1,> 10,10,> 10,> 10,2.22,> 10,2.35,8.92,> 10,10,,
O=C(Nc1ccc(Nc2ncnc3c2OCCN3)cc1)Nc1cccc(-c2ccccc2)c1,> 10,> 10,> 10,> 10,> 10,> 10,7.59,10,> 10,> 10,,
Cc1ccc(F)c(NC(=O)Nc2ccc(Nc3ncnc4c3OCCN4)cc2)c1,> 10,> 10,> 10,> 10,1.47,> 10,5.11,10,> 10,5.82,,
Cc1cc(C)cc(NC(=O)Nc2ccc(Nc3ncnc4c3OCCN4)cc2)c1,> 10,> 10,> 10,> 10,1.07,> 10,0.971,7.08,> 10,5.65,,
CC(C)(C)c1cc(NC(=O)Nc2ccc(Nc3ncnc4c3OCCN4)cc2F)no1,5.23,> 10,0.59,4.72,0.01,0.09,0.057,0.13,> 10,0.08,,

# Further lines, with some results ahead:
GI50 (BaF3 [2]) [µM],GI50 (BaF3 [3]) [µM],GI50 (BaF3 [4]) [µM],GI50 (BaF3 [7]) [µM],IC50 [8] [µM],GI50 (BaF3 [9]) [µM],IC50 [10] [µM],SMILES,GI50 [1] [µM],GI50 [5] [µM],GI50 [6] [µM],TGI (NIH3T3),Activity [11]
> 10,> 10,> 10,> 10,6.81,> 10,5.29,COc1cccc(NC(=O)Nc2ccc(Nc3ncnc4c3OCCN4)cc2)c1,> 10,> 10,> 10,,
6.02,> 10,8.81,1.87,0.025,3.37,0.063,CC(C)(C)c1cc(NC(=O)Nc2ccc(Nc3ncnc4c3OCCN4)c(O)c2)no1,1.55,> 10,0.8,,
> 10,> 10,> 10,> 10,0.322,3.89,0.716,CN1CCCOc2c(Nc3ccc(NC(=O)Nc4cc(C(C)(C)C)on4)cc3)ncnc21,3.58,> 10,1.6,,
5.72,> 10,4.76,2.03,0.05,0.73,0.044,Cc1cc(NC(=O)Nc2cc(C(C)(C)C)on2)ccc1Nc1ncnc2c1OCCN2,1.54,> 10,0.45,,
> 10,> 10,> 10,> 10,3.15,> 10,5.17,CC(C)(C)c1csc(NC(=O)Nc2ccc(Nc3ncnc4c3OCCN4)cc2)n1,> 10,> 10,> 10,,
7.98,> 10,8.61,8.98,8.77,5.16,5.37,CC(C)N1CCOc2c(Nc3ccc(NC(=O)Nc4cc(C(C)(C)C)on4)cc3)ncnc21,3.12,> 10,5.1,,
> 10,> 10,> 10,> 10,0.227,> 10,0.824,COc1ccc(NC(=O)Nc2ccc(Nc3ncnc4c3OCCN4)cc2)cc1,> 10,> 10,6.12,,
> 10,> 10,> 10,> 10,> 10,> 10,8.64,O=C(Nc1ccc(Nc2ncnc3c2OCCN3)cc1)Nc1cccs1,> 10,> 10,> 10,,
> 10,> 10,> 10,> 10,0.781,> 10,1.11,Cc1nc(Nc2ncnc3c2OCCN3)ccc1NC(=O)Nc1cc(C(C)(C)C)on1,10,> 10,> 10,,
> 10,> 10,> 10,> 10,0.077,4.12,0.18,CC(C)(C)c1cc(NC(=O)Nc2ccc(Nc3ncnc4c3OCCN4)nc2)no1,10,> 10,2.56,,
> 10,10,> 10,> 10,0.865,> 10,1.3,O=C(Nc1ccc(Nc2ncnc3c2OCCN3)cc1)Nc1cc(Cl)cc(Cl)c1,8.05,> 10,> 10,,
